Reference: US6559167B1, “Prodrugs of proton pump inhibitors” (Regents of the University of California, priority 1998, dated 2003)
“And” between values parts separate entries of the source, which are not always exact repeats. Identical values can stand only once.

Key:
[1] = test system: gastric acid secretion of the conscious male rat; experiment: Inhibitory effect on gastric acid secretion of the conscious male rat at timed intervals after oral administration; type: in vivo; design: inhibition of gastric acid secretion: concentration or dose not given beside the values; settings: for % inhibition of gastric acid secretion: male rat; for inhibition of gastric acid secretion: after 5 hr of oral administration
[2] = Relative plasma concentration of OMEPRAZOLE in male rat after oral administration; settings: male rat;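 further: Sprague-Dawley rats fasted one day with water available, dosed orally with prodrug compounds, OMEPRAZOLE quantified by HPLC in plasma from serial blood draws, control given OMEPRAZOLE itself orally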
Method: Male adult rats of the Sprague-Dawley strain were used for determining the concentration of OMEPRAZOLE in the plasma. All rats were derived of food but not of water for one day. Examples of compounds of the invention (2 mg/kg of rat weight) were orally administrated to male rats (weighing 250 g to 270 g) and blood samples (0.3 ml) were taken at timed intervals. Blood samples were centrifuged and plasma was taken out. Plasma was extracted with 0.5 ml of dichloromethane. Dichloromethane layer was evaporated by nitrogen/air blowing. The residual materials were dissolved in 0.5 ml of 40% acetonitrile in 10 mM phosphate buffer (pH 7.4). Amounts of OMEPRAZOLE were determined by HPLC analysis. As a control, OMEPRAZOLE (4 mg/kg of rat weight) was orally administrated.

[3] = Chemical stability: hydrolysis half-life in buffer solution at various pH; type: physicochemical
Text: By way of concrete examples, the following tests and results are described. […] This is consistent with the knowledge that the compounds obtained by hydrolysis e. g. LANSOPRAZOLE, OMEPRAZOLE, PANTOPRAZOLE and RABEPRAZOLE are well known H,K-ATPase inhibitors. […] Another good example is 2-(2-carbamoylmethoxy-4-{2-[4-(3-methoxypropoxy)-3-methyl pyridin-2-yl methylsulfinyl]benzimidazole-1-sulfonyl}phenoxy)acetamide. The half life of this compound dependes on pH. […] Based on these measured characteristics the compound 2-(2-carbamoylmethoxy-4-{2-[4-(3-methoxypropoxy)-3-methyl pyridin-2-yl methylsulfinyl]benzimidazole-1-sulfonyl}phenoxy)acetamide is expected to be well absorbed, and slowly release the parent RABEPRAZOLE in the blood, resulting in long-lasting in vivo activity. This compound can also be administered intravenously in an aqueous solution at pH 7.4 which solution may include 2-hydroxypropyl-β-cyclodextrin.
The chemical stability of the compounds of the invention has been followed kinetically at low concentration at 37° C. in a buffer solution composed of 0.2M NaCl, 50 mM sodium phosphate, pH 7.4, 2% bovine albumin serum, 5-10% methanol.
The hydrolysis of 2-(2-carbamoylmethoxy-4-{2-[4-(3-methoxy-propoxy)-3-methyl-pyridin-2-ylmethanesulfinyl]-benzimidazole-1-sulfonyl}-phenoxy)-acetamide was measured at various pH.

[4] = 20 min after oral administration, examples 2 mg/kg, OMEPRAZOLE 4 mg/kg
[5] = 40 min after oral administration, examples 2 mg/kg, OMEPRAZOLE 4 mg/kg
[6] = 60 min after oral administration, examples 2 mg/kg, OMEPRAZOLE 4 mg/kg
[7] = 80 min after oral administration, examples 2 mg/kg, OMEPRAZOLE 4 mg/kg
[8] = 100 min after oral administration, examples 2 mg/kg, OMEPRAZOLE 4 mg/kg
[9] = 120 min after oral administration, examples 2 mg/kg, OMEPRAZOLE 4 mg/kg
[10] = 140 min after oral administration, 2 mg/kg
[11] = 160 min after oral administration, 2 mg/kg
[12] = 180 min after oral administration, 2 mg/kg
[13] = 210 min after oral administration, 2 mg/kg
[14] = 240 min after oral administration, 2 mg/kg
[15] = 270 min after oral administration, 2 mg/kg
[16] = 300 min after oral administration, 2 mg/kg
[17] = 330 min after oral administration, 2 mg/kg
[18] = 360 min after oral administration, 2 mg/kg
[19] = between 5-8 hours after oral administration, 10 μmole/kg, histamine and carbachol stimulated
[20] = between 4-7 hr after oral administration

## N-(carbamoylmethyl)-2-{4-[(5-methoxy-2-{[(3,5-dimethyl-4-methoxy-2-pyridyl)methyl]sulfinyl}benzimidazol-1-yl)sulfonyl]phenoxy}acetamide and N-(carbamoylmethyl)-2-{4-[(6-methoxy-2-{[(3.5-dimethyl-4-methoxy-2-pyridyl)methyl]sulfinyl}benzimidazol-1-yl)sulfonyl]phenoxy}acetamide [Example 62]
[1]; between 5.5-8.5 hours after oral administration, 10 μmole/kg, histamine and carbachol stimulated
  % inhibition of gastric acid secretion: 14.1 ± 7.5%

## N-[4-[[5-methoxy-2-[[(3,5-dimethyl-4-methoxy-2-pyridyl)methyl]sulfinyl]benzimidazol-1-yl]sulfonyl]phenyl]urea and N-[4-[[6-methoxy-2-[[(3,5-dimethyl-4-methoxy-2-pyridyl)methyl]sulfinyl]benzimidazol-1-yl]sulfonyl]phenyl]urea [Example 29]
[2]; [4]
  Relative concentration of OMEPRAZOLE released in the plasma: 4.5 arbitrary unit
[2]; [5]
  Relative concentration of OMEPRAZOLE released in the plasma: 14 arbitrary unit
[2]; [6]
  Relative concentration of OMEPRAZOLE released in the plasma: 8.5 arbitrary unit
[2]; [7]
  Relative concentration of OMEPRAZOLE released in the plasma: 3.5 arbitrary unit
[2]; [8]
  Relative concentration of OMEPRAZOLE released in the plasma: 2.5 arbitrary unit
[2]; [9]
  Relative concentration of OMEPRAZOLE released in the plasma: 1.875 arbitrary unit
[2]; [10]
  Relative concentration of OMEPRAZOLE released in the plasma: 0.625 arbitrary unit
[2]; [11]
  Relative concentration of OMEPRAZOLE released in the plasma: 0.6 arbitrary unit
[2]; [12]
  Relative concentration of OMEPRAZOLE released in the plasma: 0.6 arbitrary unit
[2]; [13]
  Relative concentration of OMEPRAZOLE released in the plasma: 1.5 arbitrary unit
[2]; [14]
  Relative concentration of OMEPRAZOLE released in the plasma: 0.5 arbitrary unit
[2]; [15]
  Relative concentration of OMEPRAZOLE released in the plasma: 0.5 arbitrary unit
[2]; [16]
  Relative concentration of OMEPRAZOLE released in the plasma: 0.2 arbitrary unit
[2]; [17]
  Relative concentration of OMEPRAZOLE released in the plasma: 0.1 arbitrary unit
[2]; [18]
  Relative concentration of OMEPRAZOLE released in the plasma: 0.05 arbitrary unit

## 2-{4-[(5-methoxy-2-{[(3.5-dimethyl-4-methoxy-2-pyridyl)methyl]sulfinyl}benzimidazol-1-yl)sulfonyl]phenoxy}acetamide and 2-{4-[(6-methoxy-2-{[(3,5-dimethyl-4-methoxy-2-pyridyl)methyl]sulfinyl}benzimidazol-1-yl)sulfonyl]phenoxy}acetamide [Example 53]
[1]; [19]
  % inhibition of gastric acid secretion: 65.2 ± 11.3%

## COCCCOc1ccnc(C[S+]([O-])c2nc3ccccc3n2S(=O)(=O)c2ccc(OCC(N)=O)c(OCC(N)=O)c2)c1C (stereo not drawn) [Example 77, 2-(2-carbamoylmethoxy-4-{2-[4-(3-methoxypropoxy)-3-methylpyridin-2-ylmethylsulfinyl]benzimidazole-1-sulfonyl}phenoxy)acetamide]
[3]; 2 mg/mL, pH 7.4
  half-life of hydrolysis: 3.73 h
[3]; bovine, pH 7.4, half-life of hydrolysis
  half-life: ~22.2 h
[3]; buffer, pH 2
  half-life of hydrolysis: 1.8 h
[3]; buffer, pH 2, half-life of hydrolysis
  half-life: ~1.8 h
[3]; buffer, pH 8
  half-life of hydrolysis: 10.7 h
[3]; buffer, pH 8, half-life of hydrolysis
  half-life: ~10.7 h
[3]; pH 7.4, half-life of hydrolysis
  half-life at 2 mg/mL: ~3.7 h
[1]
  inhibition of gastric acid secretion: 56%
[1]; [20]
  % inhibition of gastric acid secretion: 56%

## Cc1c(OCC(F)(F)F)ccnc1C[S+]([O-])c1nc2ccccc2[nH]1 (stereo not drawn) [LANSOPRAZOLE, reference compound]
[1]; [20]
  % inhibition of gastric acid secretion: 29%
[1]; between 4-7 hr after oral administration, listed as LANOPRAZOLE
  % inhibition of gastric acid secretion: 29%

## Cc1c(OCC(F)(F)F)ccnc1C[S+]([O-])c1nc2ccccc2n1S(=O)(=O)c1ccc(OCC(N)=O)c(OCC(N)=O)c1 (stereo not drawn) [Example 79, 2-(2-Carbamoylmethoxy-4-{2-[3-methyl-4-(2,2,2-trifluoro-ethoxy)-pyridin-2-ylmethanesulfinyl]-benzimidazole-1-sulfonyl}-phenoxy)-acetamide]
[1]; [20]
  % inhibition of gastric acid secretion: 36.8%

## COCCCOc1ccnc(C[S+]([O-])c2nc3ccccc3[nH]2)c1C (stereo not drawn) [RABEPRAZOLE, reference compound]
[1]
  inhibition of gastric acid secretion: 32%
[1]; [20]
  % inhibition of gastric acid secretion: 32%

## 1-(Pyridine-3-sulfonyl)-5-methoxy-2-[[(3,5-dimethyl-4-methoxy-2-pyridylmethyl]sulfinyl]-1H-benzimidazole and 1-(pyridine-3-sulfonyl-6-methoxy-2-[[(3,5-dimethyl-4-methoxy-2-pyridyl)methyl]sulfinyl]-1H-benzimidazole [Example 25]
[1]; [19]
  % inhibition of gastric acid secretion: 61% and 61.3 ± 16.1%

## Cc1c(OCC(F)(F)F)ccnc1C[S+]([O-])c1nc2ccccc2n1S(=O)(=O)c1ccc(OCC(N)=O)cc1 (stereo not drawn) [Example 54]
[1]; [20]
  % inhibition of gastric acid secretion: 46.9%
[1]; between 4-7 hr after oral administration, listed as 2-(4-{[2-({[3-Methyl-4-(2,2,2-trifluoroethoxy)-2-pyridyl]methyl}sulfinyl) benzim)
  % inhibition of gastric acid secretion: 46.9%

## 1-[4-[3-(morpholin-4-yl) propoxy]benzenesulfonyl]-5-methoxy-2-[[(3,5-dimethyl-4-methoxy-2-pyridyl)methyl]sulfinyl]-1H-benzimidazole and 1-[4-[3-(morpholin-4-yl) propoxy]benzenesulfonyl]-6-methoxy-2-[[(3.5-dimethyl-4-methoxy-2-pyridyl)methyl]sulfinyl]-1H-benzimidazole [Example 37]
[2]; [4]
  Relative concentration of OMEPRAZOLE released in the plasma: 1.67 arbitrary unit
[2]; [5]
  Relative concentration of OMEPRAZOLE released in the plasma: 14.36 arbitrary unit
[2]; [6]
  Relative concentration of OMEPRAZOLE released in the plasma: 3.5 arbitrary unit
[2]; [7]
  Relative concentration of OMEPRAZOLE released in the plasma: 1.88 arbitrary unit
[2]; [8]
  Relative concentration of OMEPRAZOLE released in the plasma: 1.88 arbitrary unit
[2]; [9]
  Relative concentration of OMEPRAZOLE released in the plasma: 1.5 arbitrary unit
[2]; [10]
  Relative concentration of OMEPRAZOLE released in the plasma: 1.5 arbitrary unit
[2]; [11]
  Relative concentration of OMEPRAZOLE released in the plasma: 1 arbitrary unit
[2]; [12]
  Relative concentration of OMEPRAZOLE released in the plasma: 1 arbitrary unit
[2]; [13]
  Relative concentration of OMEPRAZOLE released in the plasma: 0.7 arbitrary unit
[2]; [14]
  Relative concentration of OMEPRAZOLE released in the plasma: 0.7 arbitrary unit
[2]; [15]
  Relative concentration of OMEPRAZOLE released in the plasma: 0.7 arbitrary unit
[2]; [16]
  Relative concentration of OMEPRAZOLE released in the plasma: 0.4 arbitrary unit
[2]; [17]
  Relative concentration of OMEPRAZOLE released in the plasma: 0.2 arbitrary unit
[2]; [18]
  Relative concentration of OMEPRAZOLE released in the plasma: 0.1 arbitrary unit
[2]; 390 min after oral administration, 2 mg/kg
  Relative concentration of OMEPRAZOLE released in the plasma: 0.1 arbitrary unit

## N-(2-{4-[5-methoxy-2-(4-methoxy-3,5-dimethyl pyridin-2-yl methylsulfinyl)benzimidazole-1-sulfonyl]-phenoxy}ethyl)-N,N,N-trimethyl ammonium trifluoromethanesulfonate and N-(2-{4-[6-methoxy-2-(4-methoxy-3,5-dimethyl pyridin-2-yl methylsulfinyl)benzimidazole-1-sulfonyl]-phenoxy}ethyl)-N,N,N-trimethyl ammonium trifluoromethanesulfonate [Example 73]
[1]; [19]
  % inhibition of gastric acid secretion: 21.8 ± 11.7%
